“And” between values parts separate entries of the source, which are not always exact repeats. Equal entries are not always repeated.
How the values were obtained:
[1] = mouse, in vivo
Text: Offspring from dosed females were mated and checked for fertility to determine possible inheritable effects.

[2] = tested on: endometriosis lesions (plugs of uterine tissue); assay: Dose ranging prevention study, transplanted plugs of uterine tissue; assay type: in vivo, C57BL6 mice; settings: for Lesion burden Ave / Lesion growth Ave: average per mouse; for Lesion burden Mean / Lesion establishment Mean / Lesion growth Mean: group mean; for Lesion burden P1 / Lesion burden P2 / Lesion burden P3 / Lesion burden P4 / Lesion burden P5 / Lesion burden P6 / Lesion growth M1 / Lesion growth M2 / Lesion growth P1 / Lesion growth P2 / Lesion growth P3 / Lesion growth P4 / Lesion establishment M1 / Lesion establishment M2 / Lesion establishment P1 / Lesion establishment P2 / Lesion establishment P3 / Lesion establishment P4: individual mouse; for Lesion establishment M1 / Lesion establishment M2 / Lesion establishment P1 / Lesion establishment P2 / Lesion establishment P3 / Lesion establishment P4: 1 or 0; for Lesion establishment Ave: per mouse
endometriosis lesion = assay: First study: in-vivo model of endometriosis, tissue from K-rasV12/Ah-Cre/ROSA26R-LacZ donor mice in wild-type animals; settings: four treated animals, injected for 21 days
Protocol: In a first study, a total of 4 treatment and 5 control animals were generated in a novel in-vivo model of endometriosis (Research Horizons, University of Cambridge, 2009 Issue 8, GB 0715635.9) K-rasV12/Ah-Cre transgenic mice were crossed with Rosa26R mice to generate KrasV12+/−/Ah-Cre+/−/ROSA26R-LacZ+/− transgenic mice. The F1 offspring were inbred to generate F2 K-rasV12+/−/Ah-Cre+/+/ROSA26R-LacZ+/+ transgenic mice. The presence of the transgenes was determined by PCR using gene specific primers for K-ras, Cre and Rosa26R-LacZ. Tissue was collected from donor animals previously treated with hormones etc. and was divided between wild-type animals that were then injected with drug or vehicle for 21 days.

[3] = mouse, in vivo; remark: listed apart in the source
Protocol: 8-10 week old, female nulliparous C57BL6 mice were acclimatised for 1 week. A group of 10 female animals were dosed with 10 ng of peptide injected subcutaneously 3 days prior to experimentation with a control group of 10 animals treated with vehicle alone.
5 male C57BL6 animals were introduced and the females checked daily for mucous plug (before 9 a.m.). When mucous plug was recorded the females were evaluated for:
a) Length of possible pregnancy (days)
c) Anomalies in offspring

## Ac-PPPHPHARIK-NH2 [ValiRx1, Ac-Pro-Pro-Pro-His-Pro-His-Ala-Arg-Ile-Lys-NH2]
[1]
  fertility of offspring from dosed females: no abnormalities noted
[2]; 1 ng, 10 ng or 100 ng s.c. daily
  lesion growth following treatment vs control group: significantly reduced
[2]; 1 ng/mouse s.c. daily
  Lesion burden Ave: 1.1 mm^2 and 1.9 mm^2 and 12.1 mm^2 and 6.5 mm^2 and 8.5 mm^2
  Lesion growth Ave: 6.5 mm^2 and 8.5 mm^2 and 1.3 mm^2 and 1.9 mm^2 and 12.1 mm^2
  Lesion burden Mean: 6.02 mm^2
  Lesion establishment Mean: 96.67%
  Lesion growth Mean: 6.23 mm^2
  Lesion burden P1: 1.8 mm^2 and 1.1 mm^2 and 4.2 mm^2 and 15.1 mm^2 and 10.2 mm^2
  Lesion burden P2: 0.2 mm^2 and 3.1 mm^2 and 16.7 mm^2 and 5.7 mm^2 and 10.6 mm^2
  Lesion burden P3: 0.1 mm^2 and 2.5 mm^2 and 15.2 mm^2 and 8.0 mm^2 and 16.6 mm^2
  Lesion burden P4: 0.0 mm^2 and 0.2 mm^2 and 17.0 mm^2 and 3.8 mm^2 (2×)
  Lesion burden P5: 3.5 mm^2 and 1.1 mm^2 and 11.2 mm^2 and 0.2 mm^2 and 0.5 mm^2
  Lesion burden P6: 1.1 mm^2 and 3.5 mm^2 and 8.0 mm^2 and 6.2 mm^2 and 9.4 mm^2
  Lesion growth M1: 0.196 mm^2 and 0.503 mm^2 and 3.456 mm^2 and 1.131 mm^2 and 11.2 mm^2
  Lesion growth M2: 6.158 mm^2 and 9.425 mm^2 and 1.131 mm^2 and 3.464 mm^2 and 8.042 mm^2
  Lesion growth P1: 1.131 mm^2 and 4.155 mm^2 and 15.1 mm^2 and 10.18 mm^2 and 1.767 mm^2
  Lesion growth P2: 3.142 mm^2 and 16.74 mm^2 and 5.694 mm^2 and 10.56 mm^2 and 0.196 mm^2
  Lesion growth P3: 2.545 mm^2 and 15.21 mm^2 and 8.042 mm^2 and 16.62 mm^2 and 0.126 mm^2
  Lesion growth P4: 3.801 mm^2 (2×) and 0.196 mm^2 and 16.96 mm^2
  Lesion establishment M1: 1
  Lesion establishment M2: 1
  Lesion establishment P1: 1
  Lesion establishment P2: 1
  Lesion establishment P3: 1
  Lesion establishment P4: 1 (4×) and 0
  Lesion establishment Ave: 100% (4×) and 83.33%
[2]; 10 ng/mouse s.c. daily
  Lesion burden Ave: 2.9 mm^2 and 6.7 mm^2 and 11.3 mm^2 and 3.3 mm^2 and 3.5 mm^2
  Lesion growth Ave: 2.9 mm^2 and 6.7 mm^2 and 11.3 mm^2 and 3.3 mm^2 and 4.2 mm^2
  Lesion burden Mean: 5.53 mm^2
  Lesion establishment Mean: 96.67%
  Lesion growth Mean: 5.72 mm^2
  Lesion burden P1: 1.0 mm^2 and 7.3 mm^2 and 12.6 mm^2 and 3.1 mm^2 and 1.1 mm^2
  Lesion burden P2: 3.5 mm^2 (2×) and 10.0 mm^2 and 7.0 mm^2 and 2.5 mm^2
  Lesion burden P3: 10.9 mm^2 and 4.5 mm^2 and 9.6 mm^2 and 3.5 mm^2 (2×)
  Lesion burden P4: 1.0 mm^2 and 6.7 mm^2 and 5.4 mm^2 and 3.0 mm^2 and 0.0 mm^2
  Lesion burden P5: 1.0 mm^2 and 7.1 mm^2 and 21.1 mm^2 and 3.5 mm^2 and 4.0 mm^2
  Lesion burden P6: 0.2 mm^2 and 4.5 mm^2 and 12.1 mm^2 and 3.1 mm^2 and 9.7 mm^2
  Lesion growth M1: 0.95 mm^2 and 7.069 mm^2 and 21.11 mm^2 and 3.464 mm^2 and 3.958 mm^2
  Lesion growth M2: 0.196 mm^2 and 4.524 mm^2 and 12.06 mm^2 and 3.142 mm^2 and 9.66 mm^2
  Lesion growth P1: 0.95 mm^2 and 7.288 mm^2 and 12.57 mm^2 and 3.142 mm^2 and 1.131 mm^2
  Lesion growth P2: 3.464 mm^2 (2×) and 10.02 mm^2 and 7.037 mm^2 and 2.545 mm^2
  Lesion growth P3: 10.95 mm^2 and 4.524 mm^2 and 9.621 mm^2 and 3.464 mm^2 (2×)
  Lesion growth P4: 0.95 mm^2 and 6.739 mm^2 and 5.372 mm^2 and 2.969 mm^2
  Lesion establishment M1: 1
  Lesion establishment M2: 1
  Lesion establishment P1: 1
  Lesion establishment P2: 1
  Lesion establishment P3: 1
  Lesion establishment P4: 1 (4×) and 0
  Lesion establishment Ave: 100% (4×) and 83.33%
[2]; 100 ng/mouse s.c. daily
  Lesion burden Ave: 11.8 mm^2 and 1.8 mm^2 and 3.2 mm^2 and 3.0 mm^2 and 2.9 mm^2
  Lesion growth Ave: 11.8 mm^2 and 1.8 mm^2 and 3.2 mm^2 and 3.0 mm^2 and 2.9 mm^2
  Lesion burden Mean: 4.52 mm^2
  Lesion establishment Mean: 100.00%
  Lesion growth Mean: 4.52 mm^2
  Lesion burden P1: 7.0 mm^2 and 4.5 mm^2 and 2.8 mm^2 and 2.0 mm^2 and 1.5 mm^2
  Lesion burden P2: 18.5 mm^2 and 2.8 mm^2 and 2.3 mm^2 and 3.1 mm^2 and 3.5 mm^2
  Lesion burden P3: 11.0 mm^2 and 2.3 mm^2 (2×) and 3.5 mm^2 and 4.9 mm^2
  Lesion burden P4: 8.4 mm^2 and 0.2 mm^2 and 3.8 mm^2 and 2.5 mm^2 and 1.8 mm^2
  Lesion burden P5: 12.6 mm^2 and 1.0 mm^2 and 7.5 mm^2 and 3.8 mm^2 and 2.0 mm^2
  Lesion burden P6: 13.2 mm^2 and 0.3 mm^2 (2×) and 2.8 mm^2 and 3.5 mm^2
  Lesion growth M1: 12.57 mm^2 and 0.95 mm^2 and 7.548 mm^2 and 3.801 mm^2 and 2.011 mm^2
  Lesion growth M2: 13.2 mm^2 and 0.283 mm^2 (2×) and 2.835 mm^2 and 3.464 mm^2
  Lesion growth P1: 7.037 mm^2 and 4.453 mm^2 and 2.827 mm^2 and 2.011 mm^2 and 1.539 mm^2
  Lesion growth P2: 18.47 mm^2 and 2.827 mm^2 and 2.27 mm^2 and 3.142 mm^2 and 3.464 mm^2
  Lesion growth P3: 11 mm^2 and 2.27 mm^2 (2×) and 3.464 mm^2 and 4.909 mm^2
  Lesion growth P4: 8.357 mm^2 and 0.196 mm^2 and 3.801 mm^2 and 2.545 mm^2 and 1.767 mm^2
  Lesion establishment M1: 1
  Lesion establishment M2: 1
  Lesion establishment P1: 1
  Lesion establishment P2: 1
  Lesion establishment P3: 1
  Lesion establishment P4: 1
  Lesion establishment Ave: 100%
[2]; range over groups of the model
  lesion establishment: 97.67%-100%
Endometriosis lesion
  absence of lesion following treatment: three showed complete absence of lesion
[3]
  fertility of mice: does not affect their fertility
